This is an account of results in patent publication US7314755B2, “Preservation of eukaryotic cells using reversible pore formation” (Board of Supervisors of Louisiana State University and …, priority 2003, dated 2008).

In series [1] the test system is J774 cells. In words: HPLC of nucleotides in extracts of cells loaded by ATP poration. The format is cell-based, mouse. As to conditions: for intracellular nucleotides after loading (HPLC chromatogram): 20 min poration at 37° C. in DMEM pH 7.4 with 5 mM ATP, 5 mM AMP or 3.5 mM AMPS, FIG. 5. As to the method: Acid soluble extracts of cell suspensions were prepared by adding ice-cold 70% perchloric acid to a final concentration of 7% (w/v). Acid insoluble fractions were removed by centrifugation for 10 min at 10,000 g and 4° C. (Eppendorf Centrifuge 5417R, Fischer Scientific, Pittsburgh, Pa.). Extracts were neutralized with ice-cold 5 M K2CO3, and were stored at −80° C. until analyzed. The potassium perchlorate precipitate was removed by centrifugation as above. Analyses were performed using a Dionex HPLC system, including a GP 50 gradient pump, an AS 50 auto-sampler and an AS 50 thermal compartment (Dionex, Sunnyvale, Calif.). Aliquots of the supernatant were applied to a 4.6 mm×25 cm reverse-phase column (Synergy 4M Hydro RP 80A, Phenomenex, Torrance, Calif.),and eluted isocratically for 15 min with a starting buffer of 50 mM K2HPO4/KH2PO4, pH 6.2, containing 10 mM tetrabutyl-ammonium hydrogen sulfate (Sigma, St. Louise, Mo.) at a flow rate of 1 mL/min at 30° C. Then a linear gradient from 0% to 25% acetonitrile was applied over 40 min. Absorbance of the effluent was monitored with a PDA-100 photodiode array detector (Dionex, Sunnyvale, Calif.) at wavelengths from λ=190 nm to λ=390 nm. Peaks were identified by comparison with retention times of standards, as well as by analyzing peak spectra between λ=190 nm and λ=390 nm from a recorded 3D-field with Chromeleon™ software (Dionex, Sunnyvale, Calif.). Concentrations of nucleotides were determined from a measurement of peak area at λ=260 nm. Calibration curves were linear over the range assayed.
During poration, the cells were exposed to 5 mM AMP, or to 3.5 mM AMPS. Cells were extracted with perchloric acid after incubation. FIG. 5(A) depicts an HPLC chromatogram of the extracted AMP-loaded cells, and FIG. 5(B) depicts an HPLC chromatogram of the extracted AMPS-loaded cells.
The experiment was otherwise conducted as described in Example 5 and illustrated in FIG. 5(B), except that cellular AMP-deaminase was inhibited by adding 35 μM coformycin to the medium.

Series [2] concerns J774 cells. In words: Trehalose uptake with and without extracellular ATP. The format is cell-based. As to the method:
Cell extracts were assayed for trehalose concentrations by separating carbohydrate peaks on a Hamilton RCX10 column, and then analyzing using pulsed amperometric electrochemical detection with an ESA Coulochem cell. […] The white bars are results from treatment for 15 minutes at 37° C. The cross-hatched bars are results from treatment for 15 minutes at 37° C., followed by 2 hours at 0° C. […] Each bar in FIG. 7 represents the mean of several different measurements. Although leaving the pores open for the longer periods of time at 37° C. can lead to cell death, the pores may be left open for longer periods at lower temperatures, while still leaving the cells viable and still allowing higher uptake of trehalose. At least 40% of the cells survived this treatment. We expect that the survivorship percentage will be improved by reducing the time the cells are held at 37° C. prior to chilling; future experiments will be done along these lines.

In series [3] the test system is AMP-activated protein kinase. The note with it: cited from earlier work.
Series [4] deals with J774 cells. Kind of series: AlamarBlue reduction, metabolic activity after ATP-dependent poration. The format is cell-based, mouse. As to the method: J774.A1 mouse macrophage cells (ATCC, Manassas, Va.) were grown in 75 cm^2 cell culture flasks (Corning Incorporated, Corning, N.Y.) containing a standard culture medium of Dubelco's modified Eagle's medium without sodium pyruvate, supplemented with 10% fetal bovine serum, 100 units/mL penicillin, 100 μg/mL streptomycin, and 2 mM glutamine (“DMEM”) (all from Invitrogen, Grand Islands, N.Y.). The cells were maintained in a humidified atmosphere of 10% CO2 and 90% air at 37° C. The number of cells per flask was determined with a hemocytometer after removal with a cell scraper. […]
(§1) To assess the effect of ATP-induced permeability on cell viability, cells were grown in suspension after activation and subsequent closure of the P2X7 receptor, as described above. […] The number of viable cells at different times was determined by counting with a hemocytometer after diluting the sample 1:1 with a 0.4% Trypan blue solution (Sigma, St. Louise, Mo.). Alternatively, cell viability was assessed by monitoring the metabolic activity of the cells with AlamarBlue™ (BioSource International, Inc., Camarillo, Calif.). […] After adding 20,000 to 40,000 cells to each well, absorbances at λ=570 nm and λ=600 nm were measured with a micro plate reader (Spectramax Plus, Molecular Devices, Sunnyvale, Calif.) at different times. […]
A general note: Resazurin is reduced to fluorescent resorufin, in cell work by metabolically active cells.

Series [5] has as its system J774 cells. Kind of series: Cell proliferation (cell counts) after ATP poration. The format is cell-based, mouse. The note with it: 15 min in Buffer 1+5 mM ATP, then spinner flask culture; FIG. 3. As to the method:
To introduce compounds that were otherwise membrane-impermeable into the cytoplasm, J774.A1 cells were centrifuged at 175 g; and were then resuspended in Buffer 1 (50 mM K2HPO4/KH2PO4, pH 7.0, 365 mOsm, 250 mM trehalose, 1 mM MgSO4, 5 mM glucose, supplemented with Basal Medium Eagle Vitamin Solution and MEM Amino Acids Solution (Invitrogen, Grand Islands, N.Y.), with each of the last two components diluted to 1×). […] The cells were incubated for 15 min or 30 min at 37° C. in sealed microtubes.
as §1
In another series of experiments, we assessed the degree to which cell proliferation was suspended following poration. […]

For series [6], the system named is J774 cells. In words: Calorimetric heat dissipation after ATP poration. The format is cell-based, mouse. As to conditions: Buffer 1+5 mM ATP, 37° C., FIG. 4. As to the method: Calorimetric measurements were conducted to assess the influence of various treatments on the total energy flow of J774 cells. A 2277 thermal activity monitor (LKB Produkter, Bromma, Sweden) was used to measure the heat dissipation of J774 cells in suspension. A 4 mL static ampule charged with 2.7 mL water was used as a reference vessel. Static and dynamic calibrations against water in both ampules were performed before the experimental heat signals were measured. For the experiments, the sample ampule was charged with 2.7 mL of cell suspension. An aliquot of the spinner flask culture was diluted with standard culture medium to give 130,000-250,000 cells in 2.7 mL, which was equilibrated with 10% CO2 and 90% air. All calorimetric measurements were performed at 37° C. A two-hour period was allowed for thermal equilibration after lowering the ampule into the calorimeter. The power signal was then recorded for the next 20 hours. The ongoing proliferation of the cells produced a continuous increase in the heat signal during the measurements.
In this series of experiments, we assessed the influence of ATP-induced poration on the heat dissipation of J774 cells. […] Each bar in FIG. 4 represents the mean±standard deviation for three to six separate measurements. The pair of asterisks for the bar at three hours indicates a statistically significant difference from control (P<0.05).

Another series concerns porated cells. In words: Early unpublished ATP-induced cell poration, cell survival. The format is cell-based. As to conditions: ATP-induced poration as in literature, pores not closed early; usually within about 24 hours. The text has this: We observed that various dyes were indeed taken up by the cells as reported in the literature. But, at least in our experiments, we also invariably observed that the cells died soon thereafter.

Series [7] concerns J774 cells. Kind of series: Viability (trypan blue exclusion) after air-drying and rehydration. The format is cell-based, mouse. The note with it: 1 μM Trifluoperazine and 200 nM cyclosporin A together, in EB drying buffer and rehydration DMEM; versus control; FIG. 10.

In the case of `Nc1ncnc2c1ncn2[C@@H]1O[C@H](COP(O)(O)=S)[C@@H](O)[C@H]1O` [AMPS, Adenosine 5′-phosphorothioate], in the series on J774 cells [1] (3.5 mM AMPS, 5 mM ATP poration, 35 μM coformycin in medium, FIG. 6), the “intracellular AMPS with AMP-deaminase inhibited” value is listed as “substantial intracellular concentration of AMPS was observed”. In the series on J774 cells [1], the “intracellular nucleotides after loading (HPLC chromatogram)” value is on record as “substantial production of a new compound”. For the same molecule, the “uptake by the cells in the absence of ATP” value in the series on J774 cells [2] (no pore opening, data not shown) is on record as “only negligible concentrations”. In addition, the “Km value, fold lower than the natural effector 5′-AMP” value in series [3] is on record as “approximately 6 fold”.

Regarding `Nc1ncnc2c1ncn2[C@@H]1O[C@H](COP(=O)(O)O)[C@@H](O)[C@H]1O` [AMP], in the series on J774 cells [1], the “intracellular nucleotides after loading (HPLC chromatogram)” value is “an increase in ADP, and a substantial increase in IMP”.

As for `Nc1ncnc2c1ncn2[C@@H]1O[C@H](COP(=O)(O)OP(=O)(O)OP(=O)(O)O)[C@@H](O)[C@H]1O` [ATP, adenosine 5′-triphosphate], the “metabolic activity when poration time increased from 15 minutes to 30 minutes” value in the series on J774 cells [4] (Buffer 1+5 mM ATP, measured 17 h and 41 h after treatment, FIG. 2) was “decreased substantially”. In addition, the “reduction of metabolic activity (AlamarBlue reduction)” value in the series with J774 cells [4] (J774 cells, 40,000 per well, 15 min incubation, versus untreated control, FIG. 1) was “about 50%”. The “time for which cell proliferation stopped after poration” value in the series on J774 cells [5] is reported as “approximately 20 hours”. In addition, the “heat dissipation 3 hours after poration” value in the series on J774 cells [6] (versus control cells) is reported as “significantly reduced”. For the same molecule, the “heat signal 24 hours after poration” value with J774 cells [6] (versus untreated control cells) is on record as “indistinguishable from that for the untreated control cells”. Further, in the series on J774 cells [2] (Buffer 1+5 mM ATP, 15 min at 37° C. followed by 2 hours at 0° C.), the “cells surviving extended pore opening at low temperature” value is “At least 40%”. Further, the “fate of porated cells in early work” value with porated cells is recorded as “invariably died”.

Turning to `OC[C@H]1O[C@@H](n2cnc3c2N=CNC[C@H]3O)[C@H](O)[C@@H]1O` [coformycin], the “effect on the metabolism of AMPS in the cells” value in the series with J774 cells [1] (35 μM coformycin in medium, AMPS-loaded porated cells, FIG. 6) is on record as “inhibited the metabolism of AMPS in the cells”.

Consider `OC[C@H]1O[C@H](O[C@H]2O[C@H](CO)[C@@H](O)[C@H](O)[C@H]2O)[C@H](O)[C@@H](O)[C@@H]1O` [trehalose], for which the “trehalose uptake in ATP-treated cells” value in the series with J774 cells [2] (Buffer 1+5 mM ATP (250 mM trehalose), versus Buffer 1 without ATP, 15 min 37° C. or plus 2 h 0° C., FIG. 7) is on record as “significantly higher trehalose uptake”. The “trehalose uptake in the absence of extracellular ATP” value in the series on J774 cells [2] (Buffer 1 without ATP, FIG. 7) is listed as “Some uptake of trehalose was observed”.

`CN1CCN(CCCN2c3ccccc3Sc3ccc(C(F)(F)F)cc32)CC1` [trifluoperazine, Trifluoperazine]: the “viability post-drying with apoptosis inhibitors” value with J774 cells [7] is “higher viability post-drying”.

For cyclosporin A, in the series on J774 cells [7], the “viability post-drying with apoptosis inhibitors” value was “higher viability post-drying”.
